SMILES strings stand for the structures. ≈ marks a conversion by molar mass, not a printed value. Read-outs that look alike come from different tables or passages of the source. Bounds are passed on as bounds.

In data set [1] the test system is bacteria listed in Table 1. In words: Antibacterial test on the bacteria listed in Table 1 (overall statements). To be noted: for antimicrobial activity compared with the (6E)-2,3-dihydrofarnesol described before: same test, bacteria listed in Table 1. The class given is cell-based. On the procedure: (§1) The minimum inhibitory concentrations of (6E)-2,3-dihydrofarnesol synthesized in Synthesis Example 1 on bacteria listed in Table 1 were determined in the following manner by the step dilution method in an agar medium.
(§2) 10 g of brain heart infusion medium (manufactured by Nissui Seiyaku K.K.), 10 g of dry bouillon (manufactured by Nissui Seiyaku K.K.), 4 g of yeast extract powder (manufactured by Difco Laboratories) and 14 g of agar were added to 1,000 ml of distilled water and dissolved therein by heating. Then the obtained solution was pipetted in 10 ml portions into test tubes and sterilized under elevated pressure. Then it was heated again and sustained in the state of a solution. Subsequently, each test solution and ethanol or DMSO (dimethyl sulfoxide) free from any antimicrobial compound of the present invention (employed as a control) were added thereto in amounts of 5 to 200 μl. After mixing, the solutions were poured into plastic Petri dishes (inner diameter: 90 mm) and solidified.
(§3) The medium thus solidified in each Petri dish was divided into 9 parts. Then 5 μl portions of suspensions of the test microorganisms except acne bacteria in distilled water (cell or spore count: 10^8 -10^9 /ml) were inoculated thereinto and incubated at 30° C. for 48 hours.
(§4) In the case of the acne bacteria, a GAM medium (manufactured by Nissui Seiyaku K.K.) was pipetted in 6 ml portions into screwed test tubes (10×105 mm) and sterilized. After adding sample solutions, a culture medium of the acne bacteria was inoculated in 5 μl portions and incubated at 37° C. for 48 hours followed by the judgement of the growth.
Further, the (6E)-2,3-dihydrofarnesol synthesized in Synthesis Example 2 and the (3S)-(6E)-2,3-dihydrofarnesol synthesized in Synthesis Example 3 were subjected to the same test by using the bacteria listed in Table 1.

For data set [2], the system named is human skin. In words: Patch test on human skin (inside of upper arms). To be noted: for skin irritation: 10% in lanolin, 30 subjects, first 24 hours and subsequent 24 hours.
Protocol: (§5) The obtained solution was then applied onto patches (Finnchamber, manufactured by Taisho Pharmaceutical Co., Ltd.). These patches were adhered to the inside of upper arms of 30 subjects. After 24 hours, the patches were peeled from the skin and the skin irritation was examined. Further, the skin irritation was examined after the subsequent 24 hours.
The test system of data set [3] is Bacillus subtilis. In words: Antibacterial test, step dilution method in agar medium. Format: cell-based. To be noted: 30° C., 48 hours. On the procedure: as §1, §2, §3
For data set [4], the system named is Pseudomonas aeruginosa. Described as above. Format: cell-based. To be noted: 30° C., 48 hours. On the procedure:
as §1, §2, §3

Data set [5] has as its system acne bacteria. In words: Antibacterial test, acne bacteria in GAM medium. Format: cell-based. To be noted: 37° C., 48 hours. As to the method:
as §1, §4

The test system of data set [6] is human skin. To be noted: in vivo.
Protocol: as §5
The subject of data set [7] is Staphylococcus aureus. Description: Antibacterial test, step dilution method in agar medium. The class given is cell-based. The following applies: 30° C., 48 hours, read-out: minimum inhibitory concentration (MIC). As to the method:
as §1, §2, §3

Data set [8] relates to coryne bacteria. The data set is described as above. The class given is cell-based. The following applies: 30° C., 48 hours, read-out: minimum inhibitory concentration (MIC). As to the method:
as §1, §2, §3

Data set [9] deals with indigenous skin bacteria. Described as above. Format: cell-based. The following applies: 30° C., 48 hours, read-out: minimum inhibitory concentration (MIC). On the procedure: as §1, §2, §3
The subject of data set [10] is bacteria listed in Table 1. The following applies: JP-A-60-64913; cited from earlier work.
The subject of data set [11] is Guinea pig skin. To be noted: in vivo. As to the method: A sensitization test with the use of Guinea pigs was carried out in accordance with the Magnusson method by using (a) the (6E)-2,3-dihydrofarnesol of a purity of 99% or above, (b) the (6E)-2,3-dihydrofarnesol of a purity of 52% and (d) the (3S)-(6E)-2,3-dihydrofarnesol.
Then the same test was performed by using farnesol [(2E,6E)-form: (2E,6Z)-form: (2Z,6E)-form: (2Z,6Z)-form=1:1:1:1] which was an analog of the (6E)-2,3-dihydrofarnesol of the present invention.

For data set [12], the system named is skin. The following applies: background, restricts use on a mass scale; cited from earlier work.

As to `CC(C)=CCC/C(C)=C/CCC(C)CCO` (stereo not drawn) [(a), (6E)-2,3-dihydrofarnesol], in [1], the “antimicrobial activity compared with the (6E)-2,3-dihydrofarnesol described before” value is reported as “almost the same as those described above, though some differences were observed”. Moreover, the skin irritation entry in data set [2] is listed as “no skin irritation”.
Regarding `CC(C)=CCC/C(C)=C/CCC(C)CCO` (stereo not drawn) [(b), (6E)-2,3-dihydrofarnesol], the “minimum inhibitory concentration (MIC)” value in [3] and in [4] was 20 ppm in each case. For the same compound, the “concentration at which an antimicrobial activity was exerted” value in [5] was not above 10 ppm. For the same compound, the “concentration at which an antimicrobial activity was observed” value in data set [1] (bacteria of Table 1) is not above 30 ppm. In [6], the skin irritation result is on record as “no skin irritation”.
For the compound `CC(C)=CCCC(C)=CCCC(C)=CCO` [farnesol], the MIC in [7] came to 50 µg/mL (≈ 225 µM); in data set [8] it was 25 µg/mL (≈ 112 µM); in data set [9] it was 50 µg/mL (≈ 225 µM). The antimicrobial activity result in [10] is reported as “has an antimicrobial activity”.
On to `CC(C)=CCC/C(C)=C/CC[C@H](C)CCO` [(d), (3S)-(6E)-2,3-dihydrofarnesol], for which, in [11], the sensitization result is “high safety without any sensitization”. The “antimicrobial activity compared with the (6E)-2,3-dihydrofarnesol described before” value in data set [1] is reported as “antimicrobial activity similar to the above-mentioned (6E)-2,3-dihydrofarnesol”; in data set [1] (listed as (3S)-(6E)-2,3-dihydrofarnesol synthesized in Synthesis Example 3), “almost the same as those described above, though some differences were observed”. The skin irritation entry in data set [2] is on record as “no skin irritation”.
`CC(C=O)Cc1ccc(C(C)C)cc1` (stereo not drawn) [cyclamen aldehyde]: in [12], the skin sensitization result is on record as “skin sensitization”.
As to `CC(C)=CCC/C(C)=C/CCC(C)CCO` (stereo not drawn) [(6E)-2,3-dihydrofarnesol], the “antimicrobial activity compared with farnesol” value in data set [1] is recorded as “superior to farnesol in the antimicrobial activity on some bacteria”. Also, the “sensitization, human skin” value in data set [2] (10% in a lanolin solution) was “no sensitization”.
